Reference: patent US12123028B2, “Viral inactivation methods for continuous manufacturing of antibodies” (Bayer HealthCare LLC, priority 2018, dated 2024)

Tested on: X-MuLV
Test: Dual X-MuLV inactivation by low pH and detergent in mAb protein A eluate, remaining infectivity by TCID50 assay on PG-4 cells
Assay type: cell-based, Xenotropic Murine Leukemia Virus
Details: for LRF ± 95% CL: 16° C.
Procedure: […] The pH adjusted eluates were then filtered by a 0.22 um filter. Various volumes of 5% detergent stock solution were then added to the filtered protein A eluates. The low pH protein A eluates containing Mega-10, Tween 80 or Tween 20 were pre-incubated at a 16° C. water bath prior to spiking with X-MuLV at a 1:20 ratio. After a thorough mixing, an aliquot of sample was removed immediately and neutralized with 1 M Tris buffer to stop low pH viral inactivation, then immediately quenched with diluent at 1:12 for Mega-10 or at 1:100 for Tween 20 and Tween 80 to stop viral inactivation by the detergent. The collected sample was designated as a time-zero reference. The remaining spiked eluate was returned to the water bath and the samples were collected at indicated times to evaluate the viral inactivation kinetics. The remaining X-MuLV infectivity in the samples post-inactivation treatment was determined by a TCID50 assay that is an endpoint dilution assay to quantify the amount of virus required to produce a cytopathic effect in 50% of inoculated tissue culture cells. Virus titers were estimated using the Spearman-Karber method and reported as TCID50/mL with a calculated 95% confidence interval (CI). Briefly, a sufficient number of 96-well plates with PG-4 (feline S^+L^−, ATCC#CRL-2032) cells were prepared the day before starting the viral inactivation experiments and incubated overnight in a 37° C. humidified CO2 incubator. A set of ten 3.2 fold dilution of the diluted positive control (1:100) and viral inactivated samples were prepared in a dilution block. Each set of the 11 serial dilutions of the samples were inoculated correspondingly onto wells (100 μL per well) of the first 11 columns in a 96-well plate that had been pre-seeded with PG-4 cells. The 12th column in the same plate was inoculated with the corresponding diluent to serve as non-virus negative control. The positive control was prepared by spiking the filtered neutralized protein A eluate with X-MuLV at a 1:20 ratio. The inoculated plates were then incubated in a 37° C. humidified CO2 incubator for approximate 2 hours. A volume of 100 uL of 2× assay medium (92% McCoy's 5A medium, 4% FBS, 2% Penicillin/Streptomycin, 2% L-Glutamine) was added to each well of the plates at the end of incubation. The plates were then returned to the same incubator, and continued incubation for 6 days. Each well of the plates were scored under a microscope for the presence of cytopathic effect (CPE) and the results were recorded in a scoring sheet. Virus titers were then estimated using the Spearman-Karber method and reported as TCID50/mL with a calculated 95% confidence interval (CI).

`CCCCCCCCCC(=O)N(C)C[C@H](O)[C@@H](O)[C@H](O)[C@H](O)CO` [Mega-10, N-Methylglucamide] was tested, and the “LRF ± 95% CL” value (dual treatment pH 3.91 + 0.10% Mega 10, mAb1 protein A eluate, 0 minutes) was 3.74 ± 0.33, the “LRF ± 95% CL” value (dual treatment pH 3.91 + 0.10% Mega 10, mAb1 protein A eluate, 2.5 minutes) was no less than 5.40±0.21 and the “LRF ± 95% CL” value (dual treatment pH 3.91 + 0.10% Mega 10, mAb1 protein A eluate, 2.5 minutes, listed as Mega 10) was no less than 5.40 ± 0.21. The “LRF ± 95% CL” value (dual treatment pH 3.91 + 0.10% Mega 10, mAb1 protein A eluate, 5 minutes) was no less than 5.40 ± 0.21, the “LRF ± 95% CL” value (dual treatment pH 3.91 + 0.10% Mega 10, mAb1 protein A eluate, 10 minutes) was no less than 5.40 ± 0.21 and the “LRF ± 95% CL” value (dual treatment pH 3.91 + 0.10% Mega 10, mAb1 protein A eluate, 30 minutes) was no less than 5.40 ± 0.21. The “LRF ± 95% CL” value (dual treatment pH 4.05 + 0.15% Mega 10, mAb2 protein A eluate, 0 minutes) was 1.62 ± 0.27, the “LRF ± 95% CL” value (dual treatment pH 4.05 + 0.15% Mega 10, mAb2 protein A eluate, 2.5 minutes) was 3.96 ± 0.31 and the “LRF ± 95% CL” value (dual treatment pH 4.05 + 0.15% Mega 10, mAb2 protein A eluate, 5 minutes) was 5.50±0.83. For the same molecule, the “LRF ± 95% CL” value (dual treatment pH 4.05 + 0.15% Mega 10, mAb2 protein A eluate, 5 minutes, listed as Mega 10) was 5.50 ± 0.83, the “LRF ± 95% CL” value (dual treatment pH 4.05 + 0.15% Mega 10, mAb2 protein A eluate, 10 minutes) was ≥5.81 ± 0.18^ and the “LRF ± 95% CL” value (dual treatment pH 4.05 + 0.15% Mega 10, mAb2 protein A eluate, 30 minutes) was ≥5.81 ± 0.18^. The “time to inactivate X-MuLV to the level below the detection limit” value (dual treatment: mAb1 protein A eluate pH 3.91 with 0.1% Mega-10, 16° C. (240 minutes by pH 3.91 alone at 18° C.)) was 2.5 min and the “time needed for inactivating X-MuLV to the level below the detection limit” value (dual treatment: mAb2 protein A eluate pH 4.05 with 0.15% Mega-10, 16° C. (120 minutes by pH 4.0 alone at 18° C.)) was 10 min.
